The values below come from US10253028B2, “Pyrazolo[3,4-D]pyrimidin derivative and its use for the treatment of leishmaniasis” (GlaxoSmithKline Intellectual Property Development Limited, priority 2015, dated 2019).

Each structure is given as a SMILES string.

In one experiment the test system is THP-1 cells. Put plainly: Intramacrophage Leishmania donovani assay, cytotoxicity readout (THP-1 cell count). It is filed as cell-based. As to conditions: 72 h incubation with compound; for EC50: Homo sapiens, THP-1, 72 h, read-out: pEC50 value against THP-1 cells (converted). The method, then:
(§1) Intra macrophage Leishmania donovani assay
(§2) The intramacrophage Leishmania assay was performed exactly as described in de Rycker et al (Antimicrob Agents Chemother. 2013 July; 57(7):2913-22. doi: 10.1128/AAC.02398-12. Epub 2013 Apr. 9. Comparison of a high-throughput high-content intracellular Leishmania donovani assay with an axenic amastigote assay. De Rycker M, Hallyburton I, Thomas J, Campbell L, Wyllie S, Joshi D, Cameron S, Gilbert I H, Wyatt P G, Frearson J A, Fairlamb A H, Gray D W.). Briefly, 1 μl of compound was pre-dispensed into 384 well sterile intermediary plates. For single point screening, amphotericin B was added to all wells of column 24 as a positive control (final concentration 2 μM) and DMSO to column 23. For potency determinations, ten-point, one in three dilution curves were created with the highest concentration being 50 μM and on each plate a control curve of amphotericin B was included. Controls were as follows: columns 11 and 12: DMSO, columns 23 and 24: amphotericin B (final concentration 2 μM). To the intermediary plates, 100 μl of THP-1 media was added and plates were shaken for >5 min to ensure complete mixing. THP-1 cells (8,000 per well, 50 μl) were plated into black clear-bottom 384 well plates (Corning) in presence of 10 nM PMA. After 20 min at RT, the plates were incubated at 37° C. under 5% CO2 in a humidified incubator for 75 h. The cells were then washed with 450 μl sterile phosphate buffered saline (PBS) supplemented with 1 mM CaCl2, 0.5 mM MgCl2, 0.1% (w/v) bovine serum albumin (PBS-A) and amastigotes were added to all wells at a multiplicity of infection of 5 (40,000 amastigotes per well). After 40 min at RT, plates were returned to the incubator. Amastigotes were incubated in the presence of macrophages for 16 h. […] For each well, i) THP-1 cell count (cytotoxicity readout) and ii) average number of amastigotes per cell (potency readout) were calculated, both in terms of pEC50 values.

The subject of experiment [1] is Leishmania donovani amastigotes. Put plainly: Intramacrophage Leishmania donovani assay, potency readout (average number of amastigotes per cell). It is filed as cell-based. The note with it: THP-1, 72 h, amastigotes in PMA-differentiated THP-1 macrophages, 72 h incubation with compound, read-out: pEC50 value against amastigotes (converted). How it is done: as §1
as §2, with “mixing.” for “mixing. THP-1 cells (8,000 per well, 50 μl) were plated into black clear-bottom 384 well plates (Corning) in presence of 10 nM PMA. After 20 min at RT, the plates were incubated at 37° C. under 5% CO2 in a humidified incubator for 75 h. The cells were then washed with 450 μl sterile phosphate buffered saline (PBS) supplemented with 1 mM CaCl2, 0.5 mM MgCl2, 0.1% (w/v) bovine serum albumin (PBS-A) and amastigotes were added to all wells at a multiplicity of infection of 5 (40,000 amastigotes per well). After 40 min at RT, plates were returned to the incubator. Amastigotes were incubated in the presence of macrophages for 16 h.”

Take `C[C@H]1CN(c2n[nH]c3nc(NC4CCC(NS(=O)(=O)CCC(F)(F)F)CC4)ncc23)CCO1` (single isomer, unassigned) [Formula (I)]: in the experiment with THP-1 cells, the “pEC50 value against THP-1 cells” value turned out to be 4.3 and the EC50 was at least 39.8 µM.
Take `C[C@@H]1CN(c2n[nH]c3nc(NC4CCC(NS(=O)(=O)CCC(F)(F)F)CC4)ncc23)CCO1` (single isomer, unassigned) [opposite enantiomer]: the results for the EC50 (in experiment [1]; with THP-1 cells) were at most 5.01 µM and at least 39.8 µM, respectively.
